Our source for the Activity and Km values is ChEMBL document CHEMBL5543131, “Discovery of Highly Potent Solute Carrier 13 Member 5 (SLC13A5) Inhibitors for the Treatment of Hyperlipidemia” (J Med Chem, 2024).

Data set [1] deals with AML12. In words: Effect on lipid accumulation in oleic and palmitic acid induced mouse AML12 cells assessed as decrease in total cholesterol level at 3 to 30 uM. Type of data set: functional, cell-based. As to conditions: dose 3-30 µM.
The test system of data set [2] is AML12. Briefly: Effect on lipid accumulation in oleic and palmitic acid induced mouse AML12 cells assessed as decrease in triglyceride level at 3 to 30 uM. The settings on record: dose 3-30 µM. Type of data set: functional, cell-based.
The test system of data set [3] is AML12. Briefly: Effect on lipid accumulation in oleic and palmitic acid induced mouse AML12 cells assessed as decrease in total cholesterol level. Format: functional, cell-based. As to conditions: dose 3-30 µM.
The test system of data set [4] is AML12. Briefly: Effect on lipid accumulation in oleic and palmitic acid induced mouse AML12 cells assessed as decrease in triglyceride level. Type of data set: functional, cell-based. As to conditions: dose 3-30 µM.
The test system of data set [5] is O=C(O)CC(O)(CCc1ccc(-c2ccccc2)cc1)C(=O)O. Briefly: Binding affinity to SLC13A5 (unknown origin) assessed as Km. As to conditions: Homo sapiens.

Active and inactive are the calls of the source. No cut-off for these calls is given here.

Chain of Na(+)/citrate cotransporter (Homo sapiens), Q86YT5 (Q86YT5 whole entry): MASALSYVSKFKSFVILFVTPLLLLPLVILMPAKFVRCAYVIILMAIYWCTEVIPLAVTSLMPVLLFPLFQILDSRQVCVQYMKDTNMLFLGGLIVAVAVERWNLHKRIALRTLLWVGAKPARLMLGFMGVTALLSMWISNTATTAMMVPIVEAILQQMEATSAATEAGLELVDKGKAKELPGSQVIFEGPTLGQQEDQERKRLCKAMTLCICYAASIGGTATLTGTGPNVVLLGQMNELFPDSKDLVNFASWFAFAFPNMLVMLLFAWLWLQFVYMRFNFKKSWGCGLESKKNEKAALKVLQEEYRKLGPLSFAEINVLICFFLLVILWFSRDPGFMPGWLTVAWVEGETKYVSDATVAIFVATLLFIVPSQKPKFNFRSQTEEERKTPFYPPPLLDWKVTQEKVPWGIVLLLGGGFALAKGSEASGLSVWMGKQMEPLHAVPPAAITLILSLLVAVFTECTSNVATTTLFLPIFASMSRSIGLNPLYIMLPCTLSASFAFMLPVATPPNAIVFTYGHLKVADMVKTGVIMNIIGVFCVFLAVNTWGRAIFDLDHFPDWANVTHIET

`CC(C)(C)c1ccc(CC[C@@](O)(CC(=O)O)C(=O)O)cc1`: the result in data set [1] and in data set [2] was inactive.
Take `CCn1nccc1-c1ccc(CCC(O)(CC(=O)O)C(=O)O)cc1` (stereo unspecified): the result in data set [2] was inactive. In data set [3], the Activity result was “Dose-Dependent Effect”.
With `O=C(O)CC(O)(CCc1nc2ccccc2s1)C(=O)O` (stereo unspecified), the result in data set [2] was inactive. Also, the Activity entry in data set [3] is “Dose-Dependent Effect”.
For the compound `COc1ccccc1-c1ccc(CCC(O)(CC(=O)O)C(=O)O)cc1` (stereo unspecified), the Activity entry in data set [4] and in data set [3] was “Dose-Dependent Effect” in each case.
One may read the Km as the substrate concentration at which the rate is half of its maximum. As for “Na(+)/citrate cotransporter (Homo sapiens), Q86YT5”, in data set [5], the Km turned out to be 0.19 µM.
For the compound `O=C(O)CC(O)(CCc1ccc2ccccc2c1)C(=O)O` (stereo unspecified), the Activity entry in data set [4] and in data set [3] was “Dose-Dependent Effect” throughout.
